Results from publication PMC7765321, “Novel Isoniazid-Carborane Hybrids Active In Vitro against Mycobacterium tuberculosis” (Pharmaceuticals, 2020).
Several values for one entry are separate records, joined by “and”; a condition that tells them apart may be missing. Identical values can stand only once.

Tested on: Mtb ΔkatG mutant strain
Assay type: cell-based, Mycobacterium tuberculosis

Row | Molecule | katG MIC50 [µM] | katG MIC99
1 | NNC(=O)c1ccncc1 [4 (INH), pyridine-4-carbohydrazide, reference compound] | 1100 | 1500 µM
2 | N′-((1,2-dicarba-closo-dodecaboran-1-yl)ethyl)isonicotinohydrazide [Compound 23] | 97.60 | 240 µM
3 | N′-((1,2-dicarba-closo-dodecaboran-1-yl)ethylidene)isonicotinohydrazide [Compound 20] | 160 | 240 µM
4 | N′-((1,2-dicarba-closo-dodecaboran-1-yl)propanoyl)isonicotinohydrazide [Compound 8] | 150 | 300 µM
5 | N′-((1,7-dicarba-closo-dodecaboran-1-yl)ethyl)isonicotinohydrazide [Compound 24] | 81.30 | 160 µM
6 | N′-((1,7-dicarba-closo-dodecaboran-1-yl)ethylidene)isonicotinohydrazide [Compound 21] | 160 | 240 µM
7 | N′-((1,7-dicarba-closo-dodecaboran-1-yl)methylidene)isonicotinohydrazide [Compound 14] | 260 | 340 µM
8 | N′-((1,7-dicarba-closo-dodecaboran-1-yl)propanoyl)isonicotinohydrazide [Compound 9] | 150 | 300 µM
9 | N′-((1,12-dicarba-closo-dodecaboran-1-yl)ethyl)isonicotinohydrazide [Compound 25] | 3.25 | 24.4 µM and 24.40 µM
10 | N′-((1,12-dicarba-closo-dodecaboran-1-yl)ethylidene)isonicotinohydrazide [Compound 22] | 160 | 330 µM
11 | N′-((1,12-dicarba-closo-dodecaboran-1-yl)methylidene)isonicotinohydrazide [Compound 15] | 510 | 680 µM
12 | N′-((1,12-dicarba-closo-dodecaboran-1-yl)propanoyl)isonicotinohydrazide [Compound 10] | 150 | 300 µM
13 | N′-((7,8-dicarba-nido-undecaboranyl)methylidene)isonicotinohydrazide [Compound 16] | 500 | >660 µM
